Test results reported in patent US9663528B2, “Substituted 1,2,3,4,6,8,12,12a-octahydro-1,4-methanodipyrido[1,2-a:1',2'-d]pyrazines and methods for treating viral infections” (priority 2012, dated 2017).
Where two headings read alike, the source gives them in different places.

Legend:
[1] = tested on: MT4 cells; assay: in vitro
[2] = tested on: HIV-IIIb; assay: Antiviral assay in MT4 cells; format: cell-based; settings: MT4 cells infected with HIV-IIIb, 5 days incubation; read-out: EC50 nM in MT-4
Method: For the antiviral assay utilizing MT4 cells, 0.4 μL of […] test concentration of 3-fold serially diluted compound in DMSO was added to 40 μL of cell growth medium (RPMI 1640, 10% FBS, 1% penicilline/Streptomycine, 1% L-Glutamine, 1% HEPES) in each well of 384-well assay plates (10 concentrations) in quidruplicate.
1 mL aliquots of 2×10^6 MT4 cells are pre-infected for 1 and 3 hours respectively at 37° C. with 25 μL (MT4) or of either cell growth medium (mock-infected) or a fresh 1:250 dilution of an HIV-IIIb concentrated ABI stock (0.004 m.o.i. for MT4 cells). Infected and uninfected cells are diluted in cell growth medium and 35 μL of 2000 (for MT4) cells is added to each well of the assay plates.
Assay plates were then incubated in a 37° C. incubator. After 5 days of incubation, 25 μL of 2× concentrated CellTiter-Glo™ Reagent (catalog #G7573, Promega Biosciences, Inc., Madison, Wis.) was added to each well of the assay plate. Cell lysis was carried out by incubating at room temperature for 2-3 minutes, and then chemiluminescence was read using the Envision reader (PerkinElmer).

[3] = target: PXR (Homo sapiens (Human), UniProt O75469); assay: Human PXR activation assay (luciferase reporter gene assay, DPX2 cells); format: cell-based; settings: 15 μM; relative to maximum fold induction by 10 or 20 μM rifampicin; DPX2 cells, 24 hours
Method: A stably transformed tumor cell line (DPX2) was plated on 96-well microtiter plates. DPX2 cells harbor the human PXR gene (NR112) and a luciferase reporter gene linked to two promoters identified in the human CYP3A4 gene, namely XREM and PXRE. […] The number of viable cells was determined and the reporter gene activity was assessed. Positive control: […]

Chain of PXR (O75469 whole entry): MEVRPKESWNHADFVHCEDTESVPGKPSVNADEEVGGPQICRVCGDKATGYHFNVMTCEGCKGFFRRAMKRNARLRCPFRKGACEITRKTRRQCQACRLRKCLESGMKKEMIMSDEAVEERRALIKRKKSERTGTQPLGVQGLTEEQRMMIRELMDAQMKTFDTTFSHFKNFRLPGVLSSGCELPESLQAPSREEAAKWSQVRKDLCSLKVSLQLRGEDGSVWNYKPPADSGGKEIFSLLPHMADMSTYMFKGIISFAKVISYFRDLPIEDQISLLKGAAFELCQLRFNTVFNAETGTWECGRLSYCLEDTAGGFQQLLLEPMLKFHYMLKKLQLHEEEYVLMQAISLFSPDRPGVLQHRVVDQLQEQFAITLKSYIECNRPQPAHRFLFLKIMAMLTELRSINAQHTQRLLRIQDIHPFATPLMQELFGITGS

Row | Compound | CC50 ([1]; human, 5 days) [µM] | EC50 [2] [nM] | CC50 [1] [µM] | % Emax at 15 μM [3] [%]
1 | O=C(NC1(c2ccc(F)cc2F)CC1)c1cn2c(c(O)c1=O)C(=O)N1[C@@H]3CC[C@@H](C3)O[C@H]1C2 [Compound 30, (2S,5R,13aS)-N-(1-(2,4-difluorophenyl)cyclopropyl)-8-hydroxy-7,9-dioxo-2,3,4,5,7,9,13,13a-octahydro-2,5-methanopyrido[1′,2′:4,5]pyrazino[2,1-b][1,3]oxazepine-10-carboxamide] | 6.83 | 4 |  | 
2 | O=C(NCc1c(F)cc(F)cc1F)c1cn2c(c(O)c1=O)C(=O)N1[C@H]3CC[C@H](CC3)[C@H]1C2 [Compound 101, (11R,4R,12aS)-7-hydroxy-6,8-dioxo-N-(2,4,6-trifluorobenzyl)-1,2,3,4,6,8,12,12a-octahydro-1,4-ethanodipyrido[1,2-a:1′,2′-d]pyrazine-9-carboxamide] |  | 2.1 | 11.6 | 
3 | O=C(NCc1c(F)cc(F)cc1F)c1cn2c(c(O)c1=O)C(=O)N1[C@H]3CC[C@H](CC3)[C@@H]1C2 [Compound 102, (1S,4S,12aR)-7-hydroxy-6,8-dioxo-N-(2,4,6-trifluorobenzyl)-1,2,3,4,6,8,12,12a-octahydro-1,4-ethanodipyrido[1,2-a:1′,2′-d]pyrazine-9-carboxamide] |  | 2.3 | 12 | 123
